This is an account of results in article PMC10033409, “Autoregulation of GPCR signalling through the third intracellular loop” (Nature, 2023).

For experiment [1], the system named is endogenous adrenergic receptors in HEK 293T cells. The experiment can be described thus: cAMP accumulation, untransfected cells. It counts as cell-based, human. The following applies: untransfected HEK 293T cells; Isoproterenol 10 µM. How it is done: Resuspended cells were added 1:1 with a 2× concentration of ligand (10 µl final) into an opaque 384-well flat bottom plate (Greiner Bio-One). […]. for FSK inhibition assays with β-ARs, 100 µM metoprolol was used. For dose–response curves, a saturating concentration of forskolin (10 µM) was included as a control to measure cAMP stimulation independent of the transfected receptor. For experiments comparing multiple receptors measuring non-cognate or secondary Gs signalling (Fig. 4e, Extended Data Fig. 8i–k), 500 µM 3-isobutyl-1-methylxanthine (IBMX) was used to inhibit phosphodiesterase activity. For all other experiments, no IBMX was used to minimize cAMP accumulation from endogenous receptors (Extended Data Fig. 6a). For experiments in Fig. 2g and Extended Data Fig. 6b,e, plates were incubated at 37 °C for 10 min to stimulate cAMP production. For all other experiments, plates were incubated at room temperature for 10 min. […] Reactions were quenched and processed for the cAMP-Glo Assay (Promega) following the manufacturer’s instructions. Luminescence was measured on a Tecan Spark plate reader (500 ms integration, one measurement per well). […]
For orientation: Changes in cAMP serve as a functional read-out for many G protein-coupled receptors.

For experiment [2], the target named is T1, PTH1R (Homo sapiens, UniProt Q03431).
T1 construct: expressed in transfected cells; host or cells: HEK 293T
T1 sequence (Q03431 27-593): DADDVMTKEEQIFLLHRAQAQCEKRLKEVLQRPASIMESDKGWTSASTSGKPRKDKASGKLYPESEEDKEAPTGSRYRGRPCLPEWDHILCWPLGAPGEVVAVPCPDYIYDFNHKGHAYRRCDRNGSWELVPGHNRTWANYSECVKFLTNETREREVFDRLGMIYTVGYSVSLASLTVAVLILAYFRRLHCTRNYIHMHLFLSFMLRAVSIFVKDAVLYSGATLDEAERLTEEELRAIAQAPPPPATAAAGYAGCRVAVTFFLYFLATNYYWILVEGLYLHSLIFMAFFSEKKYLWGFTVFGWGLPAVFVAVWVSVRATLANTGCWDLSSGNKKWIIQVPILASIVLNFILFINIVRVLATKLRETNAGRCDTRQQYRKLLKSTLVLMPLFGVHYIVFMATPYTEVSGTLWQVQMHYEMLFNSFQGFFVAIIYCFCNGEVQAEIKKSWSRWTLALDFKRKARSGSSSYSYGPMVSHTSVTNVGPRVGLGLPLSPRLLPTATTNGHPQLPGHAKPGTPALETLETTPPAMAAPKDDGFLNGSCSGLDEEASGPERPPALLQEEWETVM
The experiment can be described thus: InsP1 accumulation, PTH1R. Type of experiment: cell-based. The following applies: PTH1R Wild-Type.
Protocol: (§1) One millilitre of medium was removed from each well containing transfected cells. The remaining volume was used to gently shear and resuspend the cells by pipetting. The cell mixture was centrifuged (3 min, 300g) and media was removed using a vacuum manifold. […] The cells were washed once by repeating this procedure.
(§2) For all other second messenger assays, expression level and cell density of each condition was estimated through fluorescence. Fluorescence spectra for mCerulean (Horiba Fluoromax 4, excitation 430 nm, emission scan 450–600 nm, bandpass 4 nm) and mCitrine (Horiba Fluoromax 4, excitation 490 nm, emission scan 500–600 nm, bandpass 4 nm) were acquired for each condition. Cells were resuspended at 350,000 ± 30,000 fluorescence counts at a wavelength representing optical density of the sample (excitation 430 nm/emission 450 nm), corresponding with 2 × 10^6 ± 5 × 10^5 cells per m^l. This was confirmed by counting the cells on a haemocytometer (Countess II).
(§3) Resuspended cells were added 1:1 with a 2× concentration of ligand (70 µl final) into an opaque 96-well U-bottom plate (Greiner Bio-One). […] Plates were incubated at 37 °C for 2 h to stimulate InsP1 production. Reactions were quenched and processed for the InsP1 HTRF Assay (CisBio), following a protocol modified to achieve a higher signal to noise ratio. Fifteen microlitres of D2-conjugated InsP1 resuspended in lysis buffer (Cisbio) and 15 µl of terbium cryptate conjugated anti-InsP1 antibody resuspended in lysis buffer (Cisbio) were added to the stimulated cell mixture. Cell lysate was equilibrated for 1 h at ambient temperature with shaking (500 rpm). Reactions were transferred (4 × 20 µl) to a 384-well plate for technical replicates. […] FRET ratio for each reading was calculated as the ratio of acceptor emission to donor emission. InsP1 signal for a drug and transfection combination was calculated as the average FRET ratio of a given transfection condition without drug treatment subtracted from the average FRET ratio of a of a given transfection condition with drug treatment.

Experiment [3] relates to PTH1R. In words: InsP1 accumulation, PTH1R. The following applies: PTH1R B2AR ICL3. Type of experiment: cell-based, human.
Protocol: as §1, §2, §3
The mark [4] stands for this setting: [Isoproterenol] log(M) -6.30103.
Where [5] appears, read: [Isoproterenol] log(M) -7.30103.
The mark [6] stands for this setting: [Isoproterenol] log(M) -8.30103.

Counter-ions that a name gives are not always drawn.

On to `CC(C)NCC(O)c1ccc(O)c(O)c1` (stereo not drawn) [Isoproterenol, isoproterenol (+)-bitartrate salt], for which, in experiment [1], the “cAMP generated from endogenous receptors” value is reported as “only detected in the presence of 500 µM IBMX”. The “IP1 (AU), Average” value stood at 0.44 AU on PTH1R [2] ([Isoproterenol] log(M) -5); 0.45 AU at PTH1R [2] ([Isoproterenol] log(M) -6); 0.41 AU on PTH1R [2] (setting [4]); 0.38 AU on PTH1R [2] ([Isoproterenol] log(M) -7); 0.22 AU on PTH1R [2] (setting [5]); 0.0235 AU on PTH1R [2] ([Isoproterenol] log(M) -8). Also, the “IP1 (AU), Average” value on PTH1R [2] (setting [6]) is 0.04 AU; at PTH1R [2] ([Isoproterenol] log(M) -9), -0.0234 AU; at PTH1R [2] ([Isoproterenol] log(M) -10), -0.0216 AU; on PTH1R [2] ([Isoproterenol] log(M) -11) it was -0.00815 AU; with PTH1R [3] ([Isoproterenol] log(M) -5), 0.32 AU; in the experiment on PTH1R [3] ([Isoproterenol] log(M) -6), 0.35 AU. Also, the “IP1 (AU), Average” value in the experiment on PTH1R [3] (setting [4]) was 0.29 AU; in the experiment on PTH1R [3] ([Isoproterenol] log(M) -7) it was 0.28 AU; in the experiment on PTH1R [3] (setting [5]), 0.15 AU; in the experiment on PTH1R [3] ([Isoproterenol] log(M) -8), -0.00248 AU; with PTH1R [3] (setting [6]), -0.00156 AU; in the experiment with PTH1R [3] ([Isoproterenol] log(M) -9.30103) it was 0.05 AU. Moreover, the “IP1 (AU), Average” value with PTH1R [3] ([Isoproterenol] log(M) -10) is -0.0155 AU; in the experiment on PTH1R [3] ([Isoproterenol] log(M) -11), 0.00619 AU.
